Reference: US7108997B2, “Assay for detecting inhibitors of the enzyme myeloperoxidase” (AstraZeneca AB, priority 2001, dated 2006)
Read-outs that look alike come from different tables or passages of the source.

Legend:
Format in all cases: biochemical
[1] = target: T1, purified human myeloperoxidase (Homo sapiens, UniProt P05164); experiment: Taurine chloramine/TMB assay of HOCl production by purified myeloperoxidase with test compounds; conditions: for [HOCl]: HOCl generated by myeloperoxidase in presence of 10 μM test compounds (DMSO 0.1%), stopped after five minutes with catalase, None = 56.2 ± 2.1; for % Inhibition: inhibition of HOCl production, 10 μM test compounds (DMSO 0.1%), negative = enhancement
T1 sequence (P05164 49-745): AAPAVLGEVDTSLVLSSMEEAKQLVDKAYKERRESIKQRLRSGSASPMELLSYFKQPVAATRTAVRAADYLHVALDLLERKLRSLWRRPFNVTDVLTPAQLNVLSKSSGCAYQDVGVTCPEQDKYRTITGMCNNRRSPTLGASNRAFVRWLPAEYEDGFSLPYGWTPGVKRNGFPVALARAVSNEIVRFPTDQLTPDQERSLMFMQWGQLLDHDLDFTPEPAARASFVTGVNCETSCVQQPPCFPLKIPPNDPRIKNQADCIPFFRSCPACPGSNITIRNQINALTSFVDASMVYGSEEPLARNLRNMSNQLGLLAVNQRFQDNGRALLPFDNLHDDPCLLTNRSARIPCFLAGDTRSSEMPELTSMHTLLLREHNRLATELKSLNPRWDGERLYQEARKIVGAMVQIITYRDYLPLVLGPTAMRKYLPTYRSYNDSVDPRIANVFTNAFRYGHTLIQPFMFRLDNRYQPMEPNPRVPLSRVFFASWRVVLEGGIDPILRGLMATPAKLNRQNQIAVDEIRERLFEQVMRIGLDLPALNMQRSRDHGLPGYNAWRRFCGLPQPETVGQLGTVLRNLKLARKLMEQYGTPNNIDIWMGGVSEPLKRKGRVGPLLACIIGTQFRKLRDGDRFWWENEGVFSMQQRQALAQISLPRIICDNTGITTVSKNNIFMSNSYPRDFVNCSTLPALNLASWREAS
Experimental: The taurine chloramine assay of the present invention was used to detect HOCl generated by purified human myeloperoxidase. Hydrogen peroxide (100 μM) was added to 20 mM phosphate buffer pH 6.5 containing 20 nM myeloperoxidase, 100 mM NaCl and 10 mM taurine. The mixture was incubated for 15 minutes at room temperature and the reaction stopped by adding catalase (10 μg/ml). Five minutes later developing reagent was added to detect the generated taurine chloramine. The amount of taurine chloramine produced was compared to that formed by adding 100 μM HOCl to the PBST. […] The concentration of stock hydrogen peroxide was determined using E240 43.6 M^−1 cm^−1 and that of stock hypochlorite using E292 350 M^−1 cm^−1.
Hypochlorous acid was generated by myeloperoxidase in the absence or presence of 10 μM test compounds under the conditions described above for the time course experiment. Reactions were initiated by adding hydrogen peroxide and stopped five minutes later by adding catalase.

[2] = target: T2, MPO (Homo sapiens, UniProt P05164); experiment: MPO taurine chloramine/TMB assay with catalase stop (Example 5)
T2 sequence (P05164 49-745): T1 sequence (P05164 49-745)
Experimental: Assay buffer: 20 mM sodium/potassium phosphate buffer pH 6.5 containing 10 mM taurine and 100 mM NaCl.
Developing reagent: 2 mM TMB, 200 μM KI, 200 mM acetate buffer pH 5.4 with 20% DMF.
To 10 μl of diluted compounds in assay buffer, 40 μl of MPO (final concentration 2.5 nM) was added for 10 minutes at room temperature. Then 50 μl of H2O2 (final concentration 100 μM), or assay buffer alone as a control, were added for 10 minutes at room temperature. […] Plates were mixed and subsequently read at 650 nm.

[3] = target: T2, MPO; experiment: In vitro MPO assay measuring HOCl production (Example 1); design: purchased Planta
Experimental: Here we describe an in vitro MPO assay that was developed to assess inhibition of enzyme activity. Essentially the MPO assay was designed to measure the production of hypochlorous acid (HOCl), which is the key physiological product generated by the enzyme in vivo. An outline of the assay reactions is given:
Compounds were preincubated with the MPO enzyme in buffer for about 15 minutes prior to start of the reaction with H2O2. The whole reaction was carried out at room temperature for 10 minutes in a 96-well plate. […] All test concentrations were done in duplicate with at least two separate determinations (n=2; unless otherwise stated). The inhibitory concentration for a compound is presented as pIC50, which is −log IC50.

[4] = target: T1, purified human myeloperoxidase; experiment: Taurine chloramine/TMB assay of HOCl production by purified myeloperoxidase with test compounds; conditions: catalase at 20 μg/ml

[HOCl] [1]	inhibition at 10 µM ([1]; read-out: % Inhibition)	Molecule	further results
52.8 ± 1.2 µM		C[S+](C)[O-] [DMSO, dimethylsulphoxide]	% Inhibition [1]: 6%
1.8 ± 0.1 µM	97%	Nc1ccc(S(=O)(=O)c2ccc(N)cc2)cc1 [Dapsone]	IC50 ([2]; in the absence of tyrosine): 0.257 ± 0.073 µM; IC50 ([2]; in the presence of 8 μM tyrosine): 7.12 ± 0.61 µM
107.0 ± 0.5 µM	-90%	N[C@@H](Cc1ccc(O)cc1)C(=O)O [Tyrosine]	

The next lines start with the molecule.

Molecule	[HOCl] [1]	inhibition at 10 µM ([1]; read-out: % Inhibition)	further results
Nc1ccc(S(=O)(=O)Nc2nccs2)cc1 [N-1(2-thiazolyl)-sulfanilamide]			IC50 [3]: 1000 nM
COc1ccc(OC)cc1 [1,4-Dimethoxybenzene]	15.2 ± 1.0 µM	73%	
COc1ccc2[nH]cc(CCO)c2c1 [5-Methoxytryptophol]			IC50 [3]: 501 nM
Nc1ccc(Br)cc1 [p-Bromoaniline]	2.5 ± 0.1 µM		inhibition at 10 µM [1]: 95.6%
Catalase	8.8 ± 1.3 µM		% Inhibition [1]: 84%; inhibition of the formation of HOCl [4]: 90%
